The target of one test is T1, STAT6 (Homo sapiens, UniProt P42226).
T1 construct: stably transfected HaCaT keratinocyte cell line, which expresses NanoLuc luciferase reporter gene under the transcriptional control of the STAT6 responsive promoter; endogenous in cells; host or cells: HaCaT keratinocyte reporter cell line (stably transfected with a NanoLuc reporter)
T1 sequence (P42226 1-847): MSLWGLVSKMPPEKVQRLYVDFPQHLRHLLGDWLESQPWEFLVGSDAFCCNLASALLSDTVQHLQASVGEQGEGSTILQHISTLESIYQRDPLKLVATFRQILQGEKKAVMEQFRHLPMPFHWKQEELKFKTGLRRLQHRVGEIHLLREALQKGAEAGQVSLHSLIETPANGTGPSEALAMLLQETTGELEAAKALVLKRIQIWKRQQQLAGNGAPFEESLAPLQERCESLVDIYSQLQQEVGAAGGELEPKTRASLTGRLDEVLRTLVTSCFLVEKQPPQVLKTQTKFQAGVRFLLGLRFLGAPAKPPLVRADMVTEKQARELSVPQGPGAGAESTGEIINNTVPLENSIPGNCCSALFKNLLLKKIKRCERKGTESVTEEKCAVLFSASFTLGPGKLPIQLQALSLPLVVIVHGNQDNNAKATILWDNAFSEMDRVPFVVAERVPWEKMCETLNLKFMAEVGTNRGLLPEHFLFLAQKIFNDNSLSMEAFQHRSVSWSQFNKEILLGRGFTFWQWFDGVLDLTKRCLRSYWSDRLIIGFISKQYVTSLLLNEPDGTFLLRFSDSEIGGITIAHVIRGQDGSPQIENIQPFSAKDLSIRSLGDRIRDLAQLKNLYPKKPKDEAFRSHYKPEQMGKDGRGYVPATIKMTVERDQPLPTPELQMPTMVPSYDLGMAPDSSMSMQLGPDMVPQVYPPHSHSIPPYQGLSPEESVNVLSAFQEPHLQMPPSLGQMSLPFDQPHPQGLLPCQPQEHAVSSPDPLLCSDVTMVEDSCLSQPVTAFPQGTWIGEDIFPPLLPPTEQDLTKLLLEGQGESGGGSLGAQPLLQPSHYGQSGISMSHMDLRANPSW
Description: STAT6 Reporter Luciferase Assay (IL-13 stimulated HaCaT keratinocyte NanoLuc reporter cells). Conditions: STAT6 NanoLuc luciferase reporter, IL-13 stimulated HaCaT keratinocyte cells; read-out: Reporter EC50. It counts as cell-based. In short, it runs like this: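 IL-13 (0.12 nM, 4 h) stimulated STAT6 reporter activity in HaCaT cells after a 2 h compound pre-incubation; NanoLuc signal was measured.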
A general note: In a reporter assay the amount or activity of a reporter protein is the signal.

Test [1] relates to CCL17 secretion in peripheral human whole blood. As to the kind of experiment: Human Whole Blood (HWB) CCL17 TR-FRET Assay (IL-13 stimulated CCL17 secretion). It counts as cell-based. To be noted: Homo sapiens, 48 h, inhibition of CCL17 secretion in human whole blood, 10 ng/mL IL13, 48 hours. How it is done: The IC50 (half-maximal concentration required for inhibition) of compounds for the inhibition of CCL17 secretion in peripheral human whole blood, stimulated through the IL-13-IL-13 receptor/IL-4 receptor pathway was evaluated with a TR-FRET sandwich ELISA CCL17 (TARC) Assay Kit (Bioauxilium).
Test compounds (solubilized and serially diluted in DMSO, in an 11 point, 3-fold dilution series in duplicate) were spotted, 80 nL per well, into a 384 well v-bottom polypropylene plate. Human whole blood was collected from a peripheral vein, 714 units of sodium heparin was added for every 50 mL of blood collected. Sixty μL per well of blood was added to the compound plate. The blood plate was incubated for two hours at 37° C. After two hours, CCL17 production was stimulated with the addition of 20 μL per well of IL13 (R&D Systems) in HBSS with calcium and magnesium, with a final concentration of 10 ng/mL IL13. The plate containing blood, compound, and IL-13 was incubated at 37° C. for 48 hours, to allow for CCL17 production. After 48 hours, the plate was centrifuged at 1,500 revolutions per minute (RPM) for 7 minutes, with no braking. The CCL17 TR-FRET Assay Kit detection reagent was prepared according to kit instructions and 4 μL per well of the antibody cocktail was added to a 384-well white low volume non-binding coated plate (Corning). Sixteen μL of serum from the centrifuged blood plate was transferred to the detection plate containing the TR-FRET antibody cocktail. The plate was centrifuged briefly, then covered and incubated 16 hours at room temperature. The plate was then read on an EnVision 2105 multilabel reader (PerkinElmer) with settings for TR-FRET Ratio=10,000×(fluorescence intensity 665 nm/fluorescence intensity 615 nm).
Background: In TR-FRET formats the signal depends on donor and acceptor labels being close together.

Where only a bound is given, the exact number is not on record here.

Take `CN(C)C(=O)Nc1ccc(CNC(=O)c2nn(C)c3c2[C@@H]2COC[C@H](C3)N2c2ccc(C(=O)N(C)C)cn2)cc1` (racemic) [Example 72, rac-(4R,8S)-10-(5-(dimethylcarbamoyl)pyridin-2-yl)-N-(4-(3,3-dimethylureido)benzyl)-1-methyl-1,4,5,7,8,9-hexahydro-4,8-epiminooxocino[5,4-c]pyrazole-3-carboxamide]: the EC50 – broadly, the concentration that produces a half-maximal response – at STAT6 came out at 0.308 µM. In test [1], the IC50 (commonly the concentration at which inhibition is half-maximal) was found to be 1.1 µM.

Turning to `CCC1CN(c2ccc(C(=O)N(C)C)cn2)Cc2c(C(=O)NCc3ccc(NC(=O)N(C)C)cc3)nn(C)c21` (racemic) [Example 77, rac-(R)-5-(5-(Dimethylcarbamoyl)pyridin-2-yl)-N-(4-(3,3-dimethylureido)benzyl)-7-ethyl-1-methyl-4,5,6,7-tetrahydro-1H-pyrazolo[4,3-c]pyridine-3-carboxamide], the EC50 at STAT6 turned out to be 0.004 µM. Moreover, in test [1], it took 0.045 µM to reach half-maximal inhibition (IC50).

For `CC(C)n1nc(C(=O)NCc2ccc(NC(=O)N(C)C)cc2)c2c1CCN(c1ccc(N3CC(CO)OC3=O)cn1)C2` (racemic) [Example 80, rac-(R)-N-(4-(3,3-dimethylureido)benzyl)-5-(5-(5-(hydroxymethyl)-2-oxooxazolidin-3-yl)pyridin-2-yl)-1-isopropyl-4,5,6,7-tetrahydro-1H-pyrazolo[4,3-c]pyridine-3-carboxamide], the EC50 on STAT6 was more than 10 µM. Also, the IC50 in test [1] is more than 30 µM.

For `CC(NC(=O)c1nn(C(C)C)c2c1CN(c1ccc(C(=O)N(C)C)cn1)CC2)c1ccc(NC(=O)N(C)C)cc1` (racemic) [Example 81, rac-(R)-5-(5-(dimethylcarbamoyl)pyridin-2-yl)-N-(1-(4-(3,3-dimethylureido)phenyl)ethyl)-1-isopropyl-4,5,6,7-tetrahydro-1H-pyrazolo[4,3-c]pyridine-3-carboxamide], the EC50 at STAT6 turned out to be 0.034 µM. In test [1], the midpoint of inhibition, the IC50, lay at 0.115 µM.

Regarding `CCC(C)n1nc(C(=O)NCc2ccc(NC(=O)N(C)C)cc2)c2c1CCN(c1ccc(C(=O)N(C)C)cn1)C2` (racemic) [Example 85, rac-(R)-1-(sec-butyl)-5-(5-(dimethylcarbamoyl)pyridin-2-yl)-N-(4-(3,3-dimethylureido)benzyl)-4,5,6,7-tetrahydro-1H-pyrazolo[4,3-c]pyridine-3-carboxamide], the EC50 on STAT6 stood at 0.006 µM. The compound further had an IC50 in test [1] of 0.09 µM.

On to `CN(C)C(=O)Nc1ccc(CNC(=O)c2nn(C)c3c2[C@H]2CC[C@@H](C3)N2c2ccc(C(=O)N(C)C)cn2)cc1` (racemic) [Example 86, rac-(4R,7S)-9-(5-(dimethylcarbamoyl)pyridin-2-yl)-N-(4-(3,3-dimethylureido)benzyl)-1-methyl-1,4,5,6,7,8-hexahydro-4,7-epiminocyclohepta[c]pyrazole-3-carboxamide], for which, on STAT6, the EC50 is more than 10 µM. Besides, in test [1], the IC50 was more than 30 µM.

As to `CN(C)C(=O)Nc1ccc(CNC(=O)c2nn(C3CCOC3)c3c2CN(c2ccc(C(=O)N(C)C)cn2)CC3)cc1` (racemic) [Example 90, rac-(R)-5-(5-(dimethylcarbamoyl)pyridin-2-yl)-N-(4-(3,3-dimethylureido)benzyl)-1-(tetrahydrofuran-3-yl)-4,5,6,7-tetrahydro-1H-pyrazolo[4,3-c]pyridine-3-carboxamide], the EC50 on STAT6 is 0.025 µM. For the same compound, the IC50 in test [1] stood at 0.067 µM.

On to `COCC(C)n1nc(C(=O)NCc2ccc(NC(=O)N(C)C)cc2)c2c1CCN(c1ccc(C(=O)N(C)C)cn1)C2` (racemic) [Example 92, rac-(R)-5-(5-(dimethylcarbamoyl)pyridin-2-yl)-N-(4-(3,3-dimethylureido)benzyl)-1-(1-methoxypropan-2-yl)-4,5,6,7-tetrahydro-1H-pyrazolo[4,3-c]pyridine-3-carboxamide], for which, at STAT6, the EC50 is 0.02 µM. In addition, the IC50 in test [1] came to 0.062 µM.

For `CC(C)n1nc(C(=O)NCc2ccc(NC(=O)N(C)C)cc2)c2c1CCN(c1ccc(N3CC(O)CC3=O)cn1)C2` (racemic) [Example 93, rac-(R)-N-(4-(3,3-dimethylureido)benzyl)-5-(5-(4-hydroxy-2-oxopyrrolidin-1-yl)pyridin-2-yl)-1-isopropyl-4,5,6,7-tetrahydro-1H-pyrazolo[4,3-c]pyridine-3-carboxamide], the EC50 at STAT6 turned out to be 0.525 µM. In test [1], the IC50 amounted to 2.27 µM.

Regarding `CC1CN(c2ccc(C(=O)N(C)C)cn2)Cc2c(C(=O)NCc3ccc(NC(=O)N(C)C)cc3)nn(C(C)C)c21` (racemic) [Example 95, rac-(R)-5-(5-(dimethylcarbamoyl)pyridin-2-yl)-N-(4-(3,3-dimethylureido)benzyl)-1-isopropyl-7-methyl-4,5,6,7-tetrahydro-1H-pyrazolo[4,3-c]pyridine-3-carboxamide], the EC50 on STAT6 was 0.001 µM. This compound also displayed an IC50 in test [1] of 0.006 µM.

On to `CC(n1nc(C(=O)NCc2ccc(NC(=O)N(C)C)cc2)c2c1CCN(c1ccc(C(=O)N(C)C)cn1)C2)C(F)(F)F` (racemic) [Example 101, rac-(R)-5-(5-(dimethylcarbamoyl)pyridin-2-yl)-N-(4-(3,3-dimethylureido)benzyl)-1-(1,1,1-trifluoropropan-2-yl)-4,5,6,7-tetrahydro-1H-pyrazolo[4,3-c]pyridine-3-carboxamide], for which the EC50 at STAT6 is 0.005 µM. In test [1], this compound had an IC50 of 0.053 µM.

On to `CCC1CN(c2ccc(C(=O)N(C)C)cn2)Cc2c(C(=O)NCc3ccc(NC(=O)N(C)C)cc3)nn(CC)c21` (racemic) [Example 115, rac-(R)-5-(5-(dimethylcarbamoyl)pyridin-2-yl)-N-(4-(3,3-dimethylureido)benzyl)-1,7-diethyl-4,5,6,7-tetrahydro-1H-pyrazolo[4,3-c]pyridine-3-carboxamide], for which, on STAT6, the EC50 came out at 0.002 µM. Further, the IC50 in test [1] turned out to be 0.012 µM.

Take `CCC1Cc2c(c(C(=O)NCc3ccc(NC(=O)N(C)C)cc3)nn2CC)CN1c1ccc(C(=O)N(C)C)cn1` (racemic) [Example 116, rac-(R)-5-(5-(dimethylcarbamoyl)pyridin-2-yl)-N-(4-(3,3-dimethylureido)benzyl)-1,6-diethyl-4,5,6,7-tetrahydro-1H-pyrazolo[4,3-c]pyridine-3-carboxamide]: the EC50 on STAT6 stood at 0.01 µM. The IC50 in test [1] was 0.061 µM.

Take `CC(C)n1nc(C(=O)NCc2ccc(NC(=O)N(C)C)cn2)c2c1C(C(F)(F)F)CN(c1ccc(C(=O)N(C)C)cn1)C2` (racemic) [Example 121, rac-(R)-5-(5-(dimethylcarbamoyl)pyridin-2-yl)-N-((5-(3,3-dimethylureido)pyridin-2-yl)methyl)-1-isopropyl-7-(trifluoromethyl)-4,5,6,7-tetrahydro-1H-pyrazolo[4,3-c]pyridine-3-carboxamide]: the EC50 at STAT6 worked out at 0.001 µM. Moreover, the IC50 in test [1] is 0.006 µM.

Consider `CCC1CN(c2ccc(C(=O)N(C)C)cn2)Cc2c(C(=O)NCc3ccc(NC(=O)N(C)C)cc3)nc(C)n21` (racemic) [Example 130, rac-(R)-7-(5-(dimethylcarbamoyl)pyridin-2-yl)-N-(4-(3,3-dimethylureido)benzyl)-5-ethyl-3-methyl-5,6,7,8-tetrahydroimidazo[1,5-a]pyrazine-1-carboxamide], for which the EC50 at STAT6 was determined as 0.023 µM. The IC50 in test [1] came to 0.077 µM.

Source of the values: US20250320213A1, “Nitrogen-Containing Heterocyclic Compounds” (Pfizer Inc., priority 2024, published 2025).
